Common to all, as to experiment: ≥ marks a high value that may be exact or a test limit, other limits are often not marked, values filed in µg/mL are converted to µM
Test [1] relates to Bacillus megaterium Bm11.
Test [2] deals with Candida albicans ATCC 10231.
For test [3], the system named is Escherichia coli ATCC 25922.
The subject of test [4] is Staphylococcus aureus Cowan 1.
The test system of test [5] is Staphylococcus capitis 1.
The test system of test [6] is Yersinia pseudotuberculosis YPIII.
Test [7] has as its system Bacillus subtilis KCTC 1918.
Test [8] has as its system Candida albicans ATCC 64550.
For test [9], the system named is Candida albicans CCARM 14001.
The test system of test [10] is Candida albicans CCARM 14007.
The subject of test [11] is Escherichia coli CCARM 1229.
Test [12] deals with Escherichia coli CCARM 1238.
The subject of test [13] is Escherichia coli KCTC 1682.
Test [14] relates to Listeria monocytogenes KCTC 3710.
Test [15] deals with Pseudomonas aeruginosa KCTC 1637.
For test [16], the system named is Salmonella typhimurium CCARM 8007.
Test [17] has as its system Salmonella typhimurium CCARM 8009.
Test [18] deals with Salmonella typhimurium CCARM 8013.
Test [19] has as its system Salmonella typhimurium KCTC 1926.
For test [20], the system named is Staphylococcus aureus CCARM 3089.
The subject of test [21] is Staphylococcus aureus CCARM 3090.
Test [22] concerns Staphylococcus aureus CCARM 3108.
Test [23] has as its system Staphylococcus aureus CCARM 3114.
For test [24], the system named is Staphylococcus aureus CCARM 3126.
Test [25] deals with Staphylococcus aureus KCTC 1621.
The subject of test [26] is Acinetobacter baumannii.
For test [27], the system named is Aeromonas sobria.
The test system of test [28] is Arcyria cinerea.
Test [29] deals with Candida albicans ATCC 2002.
Test [30] has as its system Candida glabrata 0902.
For test [31], the system named is Cryptococcus neoformans.
The subject of test [32] is Cutibacterium acnes ATCC 11827.
Test [33] concerns Enterococcus faecalis 981.
Test [34] relates to Enterococcus faecium 1299.
For test [35], the system named is Escherichia coli 1334.
In test [36] the test system is Escherichia coli 1335.
Test [37] relates to Escherichia coli 1342.
In test [38] the test system is Escherichia coli 1375.
Test [39] relates to Escherichia coli.
In test [40] the test system is Klebsiella pneumoniae 1400.
For test [41], the system named is Klebsiella pneumoniae.
In test [42] the test system is Proteus mirabilis.
Test [43] has as its system Proteus vulgaris.
For test [44], the system named is Pseudomonas aeruginosa 1411.
In test [45] the test system is Pseudomonas aeruginosa 1412.
Test [46] relates to Pseudomonas aeruginosa 1413.
The test system of test [47] is Pseudomonas aeruginosa ATCC 27853.
The test system of test [48] is Salmonella enterica subsp. enterica serovar Typhi.
The subject of test [49] is Serratia marcescens.
Test [50] deals with Staphylococcus aureus 1303.
Test [51] concerns Staphylococcus aureus 1307.
Test [52] has as its system Staphylococcus aureus 1350.
In test [53] the test system is Staphylococcus aureus ATCC 2592.
The subject of test [54] is Staphylococcus aureus.
The test system of test [55] is Staphylococcus epidermidis.
The test system of test [56] is Staphylococcus haemolyticus.
Test [57] relates to Stenotrophomonas maltophilia.

The structures appear in SMILES notation. Values after ≈ are worked out from the molar mass of the structure shown. Values joined by “and” are separate entries in the source; they are usually repeats but may differ in a detail not shown here. Equal entries are not always repeated.

For `CC[C@H](C)[C@H](NC(=O)CNC(=O)[C@H](CO)NC(=O)[C@H](CC(C)C)NC(=O)[C@@H](NC(=O)[C@H](CCCN=C(N)N)NC(=O)CNC(=O)[C@@H](NC(=O)[C@H](CC(C)C)NC(=O)[C@@H]1CCCN1C(=O)[C@H](CC(C)C)NC(=O)[C@H](C)N)[C@@H](C)CC)C(C)C)C(=O)N[C@@H](CC(C)C)C(N)=O` [ALPLIGRVLSGIL], the MIC (commonly the lowest concentration that inhibits growth of the organism) in test [1] is 20 µM (≈ 26.4 µg/mL); in test [2], greater than 40 µM; in [3], greater than 40 µM; in [4] it was no less than 40 µM; in test [5], no less than 40 µM; in test [6] it was no less than 40 µM.

Regarding `NCCCC[C@H](NC(=O)[C@H](Cc1c[nH]c2ccccc12)NC(=O)[C@H](CCCCN)NC(=O)[C@H](Cc1c[nH]c2ccccc12)NC(=O)[C@H](CCCCN)NC(=O)[C@H](Cc1c[nH]c2ccccc12)NC(=O)[C@@H](N)CCCCN)C(=O)N[C@@H](Cc1c[nH]c2ccccc12)C(N)=O` [KWKWKWKW], the MIC in test [7] is 6.25 µM and 12.5 µM; in test [8], no less than 50 µM; in [9], no less than 32 µM; in test [10], no less than 32 µM; in test [11] it was 6.25 µM and 12.5 µM; in test [12], 12.5 µM (≈ 15.9 µg/mL). Besides, the MIC in test [13] is 6.25 µM and 12.5 µM; in test [14], 3.12 µM (≈ 3.98 µg/mL); in test [15], 3.12 µM (≈ 3.98 µg/mL); in test [16] it was 12.5 µM (≈ 15.9 µg/mL); in [17], 6.25 µM and 12.5 µM; in test [18], 6.25 µM and 12.5 µM. For the same compound, the MIC in [19] came out at 1.56 µM (≈ 1.99 µg/mL); in test [20], 12.5 µM (≈ 15.9 µg/mL); in [21], 12.5 µM (≈ 15.9 µg/mL); in [22], 12.5 µM (≈ 15.9 µg/mL); in [23], 12.5 µM (≈ 15.9 µg/mL); in test [24], 12.5 µM (≈ 15.9 µg/mL). Further, the MIC in test [25] is 6.25 µM and 12.5 µM.

Turning to `CC[C@H](C)[C@H](NC(=O)[C@H](C)NC(=O)[C@H](CCCN=C(N)N)NC(=O)[C@H](Cc1ccc(O)cc1)NC(=O)[C@H](CC(C)C)NC(=O)[C@H](CC(N)=O)NC(=O)[C@H](Cc1ccc(O)cc1)NC(=O)CNC(=O)[C@H](C)NC(=O)[C@@H](NC(=O)[C@@H](NC(=O)[C@@H](NC(=O)[C@H](CCCN=C(N)N)NC(=O)[C@@H](NC(=O)[C@@H](NC(=O)[C@@H](NC(=O)[C@@H]1CCCN1C(=O)[C@H](Cc1c[nH]c2ccccc12)NC(=O)[C@H](Cc1ccccc1)NC(=O)[C@H](CCCN=C(N)N)NC(=O)[C@H](CCCCN)NC(=O)[C@@H](NC(=O)[C@@H](N)CCCN=C(N)N)[C@@H](C)CC)C(C)C)C(C)C)[C@@H](C)CC)[C@@H](C)O)C(C)C)C(C)C)C(=O)N[C@@H](CCCCN)C(=O)N[C@@H](CCCCN)C(=O)N[C@@H](CCCCN)C(=O)O` [RIKRFWPVVIRTVVAGYNLYRAIKKK], the MIC in test [26] was 1.48 µM and 1.05 µM; in [27], 1.48 µM (≈ 4.7 µg/mL); in test [28], 0.37 µM and 0.74 µM; in test [29] it was 0.18 µM and 0.37 µM; in [30], 5.9 µM (≈ 18.7 µg/mL); in test [31], 23.6 µM (≈ 75 µg/mL). Further, the minimal inhibitory concentration (MIC) in [32] is 0.74 µM (≈ 2.35 µg/mL); in test [33], 2.95 µM and 1.48 µM; in [34] it was 1.48 µM (≈ 4.7 µg/mL); in [35], 2.95 µM (≈ 9.37 µg/mL); in [36] it was 1.48 µM (≈ 4.7 µg/mL); in test [37] it was 0.74 µM and 1.48 µM. In addition, the MIC in [38] was 2.95 µM (≈ 9.37 µg/mL); in [3] it was 1.48 µM (≈ 4.7 µg/mL); in [39], 1.48 µM (≈ 4.7 µg/mL); in [40], 4.17 µM (≈ 13.2 µg/mL); in test [41], 2.95 µM and 5.9 µM; in test [42] it was 1.48 µM (≈ 4.7 µg/mL). For the same compound, the minimal inhibitory concentration (MIC) in [43] was 23.6 µM (≈ 75 µg/mL); in test [44] it was 1.48 µM and 2.95 µM; in test [45], 2.95 µM and 5.9 µM; in test [46] it was 2.95 µM (≈ 9.37 µg/mL); in test [47], 5.9 µM and > 2.95 µM; in [48], 5.9 µM (≈ 18.7 µg/mL). Moreover, the MIC in test [49] was 31.5 µM and 23.6 µM; in test [50], 2.95 µM and 1.48 µM; in test [51], 2.95 µM (≈ 9.37 µg/mL); in test [52], 1.48 µM (≈ 4.7 µg/mL); in [53], 0.18 µM (≈ 0.572 µg/mL); in [54], 0.74 µM and > 0.37 µM. For the same compound, the results for the MIC in test [55], in [56] and in [57] were 2.95 µM (≈ 9.37 µg/mL), 0.09 µM (≈ 0.286 µg/mL) and 2.95 µM (≈ 9.37 µg/mL), respectively.
